Assay [1] deals with BenM (Acinetobacter baylyi, UniProt O68014). The note with it: benzoic acid alone; cited from earlier work.
Assay [2] has as its system luxCDABE gene fusions. Particulars: cited from earlier work.
In assay [3] the test system is E. coli strain DE112. The assay is described as follows: Growth inhibition by pHBA treatment. The class given is cell-based. The note with it: Escherichia coli, 25 mM pHBA (acid form), Vogel-Bonner minimal medium with glucose. The method, then: (§1) The alterations in the E. coli gene expression profile upon exposure to pHBA were examined using DNA microarray technology. E. coli strain DE112 (Van Dyk et al. Appl. Environ. Microbiol. 60:1414-1420 (1994)) was grown in Vogel-Bonner minimal medium with glucose as a carbon source to an OD600 of 0.2. At this point the culture was split in two flasks and pHBA in the acid form was added to one flask from a stock solution in ethanol to achieve a final pHBA concentration of 25 mM. The pH of the medium in the flask with pHBA was lowered by an unmeasured amount. An equivalent volume of ethanol without pHBA was added to the other flask. Approximately 58% growth inhibition resulted from the pHBA treatment under these conditions. Cells were harvested from the control and treated flasks at 30 and 60 minutes after pHBA addition. RNA isolation, array hybridization, and data analysis were done as previously described (Wei et al, J. Bacteriol. 183:545-556 (2001), Smulski et al. J. Bacteriol. 183:3353-3364 (2001)). […] These three genes are predicted to be transcribed as an operon. The reproducible observed co-regulation in response to pHBA treatment is consistent with this prediction. Thus, these three genes will be referred to as the yhcRQP operon.

Assay [4] relates to yhcRQP-luxCDABE gene fusion. The assay is described as follows: Bioluminescence response in yhcS- strain DPD2437 (yhcS::TN<Kan>). It counts as cell-based, E. coli. The note with it: thirty minutes, LB pH 7.0. An excerpt: (§2) A derivative of E. coli strain MG1655 (obtained from Prof. Douglas Berg, Washington University School of Medicine, St. Louis, […].) with the yhcS::TN<Kan> mutation was made by P1clr100Cm mediated transduction using phage grown on strain DPD2410 as a donor and selection for kanamycin resistance. The presence of the yhcS::TN<Kan> mutation in one of the resultant transductants, named DPD2433, was confirmed by PCR amplification. Plasmid pDEW655 was moved to E. coli strains MG1655 and DPD2433 by transformation, selecting for Ampicillin resistance to generate strains DPD2436 and DPD2437, respectively. The bioluminescent response of these two strains to pHBA was tested. Aliquots (50 μl) of actively growing cultures at 37° C. in LB medium that had been previously diluted, and from overnight cultures in LB medium with 150 μg/ml Ampicillin were added to 50 μl of LB medium at pH 7.0 containing pHBA as the sodium salt form. Several concentrations of pHBA were tested.

Assay [5] relates to yhcRQP-luxCDABE gene fusion. The assay is described as follows: Bioluminescence response in yhcS+ strain DPD2436 (MG1655 host). It counts as cell-based, E. coli. Particulars: thirty minutes, LB pH 7.0.
Text: as §2, with “The presence of the yhcS::TN<Kan> mutation in one of the resultant transductants, named DPD2433, was confirmed by PCR amplification.” left out
Further characterization of the signals that trigger activation of YhcS, was done using the yhcRQP-luxCDABE gene fusion containing E. coli strains DPD2411 or DPD2436.

Assay [6] deals with yhcRQP-luxCDABE gene fusion. The assay is described as follows: Bioluminescence kinetics in yhcS- strain DPD2415 (yhcS::TN<Kan>), FIG. 1. The note with it: 5 mM pHBA acid form, yhcS::TN<Kan> strain DPD2415, LB medium. The class given is cell-based, E. coli. The procedure:
(§3) E. coli strain DPD2410 is the DH5αE derived strain containing the yhcS::TN<Kan> mutation. Strains DH5αE and DPD2410 were transformed with pDEW655 to generate E. coli strains DPD2413 and DPD2415, respectively. […] The plate was incubated for 90 minutes at 37° C.; then 50 μl of the cultures was added to 50 μl of LB medium or to 50 μl of LB medium containing pHBA in the acid form, which had been added from a stock solution in ethanol. The final concentration of pHBA was 5 mM and the final concentration of ethanol was 0.25%. The pH of the medium with pHBA was lowered by an unmeasured amount. The bioluminescence was quantitated with a Luminoskan Ascent microplate luminometer (Thermo Labsystems, Franklin, Mass.). The results of this study are presented in FIG. 1, which is a plot of the bioluminescence intensity in relative light units (RLU) versus time in minutes. In the Figure, addition of pHBA was made at time zero. Solid lines are the response in the yhcS^+ strain, DPD2413. Dotted lines are the response in the yhcS^− strain, DPD2415. Circles represent pHBA treated cultures and triangles represent untreated cultures.

For assay [7], the system named is yhcRQP-luxCDABE gene fusion. The assay is described as follows: Bioluminescence kinetics in yhcS+ strain DPD2413 (DH5alphaE host), FIG. 1. The class given is cell-based, E. coli. The note with it: 5 mM pHBA acid form, yhcS+ strain DPD2413, LB medium. The procedure: as §3
The test system of assay [8] is yhcP. In words: DNA microarray gene expression profiling of pHBA-treated E. coli. It counts as cell-based. The note with it: 25 mM pHBA, 60 minutes. The procedure:
as §1

For assay [9], the system named is yhcQ. Described as above. The class given is cell-based. The note with it: 25 mM pHBA, 60 minutes. The method, then: as §1
Assay [10] deals with yhcR. Described as above. The class given is cell-based. The note with it: 25 mM pHBA, 60 minutes. The method, then:
as §1

Molecules are shown by their SMILES.

BenM, sequence (O68014 whole entry, the tested form may be a part): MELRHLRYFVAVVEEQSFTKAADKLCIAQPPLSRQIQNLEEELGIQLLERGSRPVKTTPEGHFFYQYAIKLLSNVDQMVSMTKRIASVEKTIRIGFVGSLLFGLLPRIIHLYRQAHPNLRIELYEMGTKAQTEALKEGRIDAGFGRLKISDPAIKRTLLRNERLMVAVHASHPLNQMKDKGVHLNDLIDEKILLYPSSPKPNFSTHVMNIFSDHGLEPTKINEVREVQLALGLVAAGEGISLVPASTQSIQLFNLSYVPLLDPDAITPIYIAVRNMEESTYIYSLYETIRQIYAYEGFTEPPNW

With `O=C(O)c1ccccc1` [Benzoic acid, benzoic acid], the “induction of BenM activity” value in assay [1] is “minimal, if any, induction”.
For the compound `CCn1cc(C(=O)O)c(=O)c2ccc(C)nc21` [nalidixic acid], in [2], the “up-regulation of genes in luxCDABE gene fusion collection” value is recorded as “selective up-regulation of ten genes”.
What is called inhibition is the drop in the measured response relative to a control, in per cent. In assay [3], `O=C(O)c1ccc(O)cc1` [pHBA, para-hydroxybenzoic acid] had an inhibition at 25000 µM of around 58%. Moreover, the “RLU yhcS-” value amounted to 1.02 RLU in assay [4] (1.6 mM pHBA sodium salt); 1.16 RLU in assay [4] (3.1 mM pHBA sodium salt); 1.42 RLU in assay [4] (6.2 mM pHBA sodium salt); 1.82 RLU in assay [4] (12.5 mM pHBA sodium salt); 1.59 RLU in assay [4] (25 mM pHBA sodium salt); 0.614 RLU in assay [4] (50 mM pHBA sodium salt). In assay [4] (100 mM pHBA sodium salt), the “RLU yhcS-” value was determined as 0.045 RLU. The “Ratio treated/control yhcS-” value in [4] (1.6 mM pHBA sodium salt) was 1.25; in [4] (3.1 mM pHBA sodium salt), 1.42; in assay [4] (6.2 mM pHBA sodium salt), 1.75; in assay [4] (12.5 mM pHBA sodium salt), 2.23; in assay [4] (25 mM pHBA sodium salt), 1.95; in [4] (50 mM pHBA sodium salt) it was 0.753. Moreover, in assay [4] (100 mM pHBA sodium salt), the “Ratio treated/control yhcS-” value was 0.055. Besides, the “RLU yhcS+” value in assay [5] (1.6 mM pHBA sodium salt) was found to be 6.72 RLU; in assay [5] (3.1 mM pHBA sodium salt), 10.2 RLU; in assay [5] (6.2 mM pHBA sodium salt), 16.2 RLU; in [5] (12.5 mM pHBA sodium salt) it was 30.8 RLU; in assay [5] (25 mM pHBA sodium salt) it was 66.6 RLU; in [5] (50 mM pHBA sodium salt), 91.7 RLU. The “RLU yhcS+” value in assay [5] (100 mM pHBA sodium salt) is listed as 0.437 RLU. The “Ratio treated/control yhcS+” value in assay [5] (1.6 mM pHBA sodium salt) was 10.6; in assay [5] (3.1 mM pHBA sodium salt) it was 16.2; in assay [5] (6.2 mM pHBA sodium salt) it was 25.7; in assay [5] (12.5 mM pHBA sodium salt), 48.8; in [5] (25 mM pHBA sodium salt) it was 106; in [5] (50 mM pHBA sodium salt) it was 145. Moreover, the “Ratio treated/control yhcS+” value in assay [5] (100 mM pHBA sodium salt) is reported as 0.693. Also, the “upregulation of yhcRQP-luxCDABE expression (in words, FIG. 1)” value in assay [6] is “essentially abolished”; in assay [7], “rapid and dramatic upregulation”. The “Ratio (treated/untreated)” value in [8] (experiment 1) is 6.45; in assay [8] (experiment 2) it was 12.1; in [9] (experiment 1), 4.09; in assay [9] (experiment 2), 22.3; in [10] (experiment 1) it was 72.3; in assay [10] (experiment 2) it was 10.5. Besides, the “Signal in pHBA treated” value in assay [8] (experiment 1) came to 7.52; in [8] (experiment 2), 12.0; in assay [9] (experiment 1) it was 1.61; in [9] (experiment 2), 6.02; in [10] (experiment 1), 1.37; in assay [10] (experiment 2), 7.18.

Values taken from patent US7384788B2, “Regulator/promoter for tunable gene expression and metabolite sensing” (priority 2003, dated 2008).
